This note sets out measurements from ChEMBL document CHEMBL1152098, “A new rearranged cholestane glycoside from ornithogalum saundersiae bulbs exhibiting potent cytostatic activities on leukemia HL-60 and molt-4 cells” (Bioorg Med Chem Lett, 1996).

In one assay the test system is MOLT-4. The assay can be described thus: Compound was tested for its anticancer activity against human T-lymphocytic leukemia MOLT-4 cells. The assay is classed as functional, cell-based.
A further assay relates to HL-60. The assay can be described thus: Compound was tested for its anticancer activity against HL-60 cells. The assay is classed as functional, cell-based. The following applies: Homo sapiens.

The IC50 is the concentration needed to halve the response being measured. A lower IC50 goes with greater potency. Take `COc1ccc(C(=O)O[C@@H]2[C@H](O)[C@@H](O)[C@H](O[C@@H]3[C@H](O[C@H]4CC[C@@]5(C)C(=CC[C@H]6[C@@H]7C[C@@H]8O[C@@H](O)[C@H](C=C(C)C)[C@]9(C)O[C@@H](OC)C7(CC[C@@H]65)[C@H]89)C4)O[C@@H](CO)[C@@H](O)[C@@H]3O)O[C@H]2C)cc1` (stereo not given in full): the IC50 came to 3.2 nM in the assay with MOLT-4 and 9.2 nM in the assay on HL-60.
`COc1cccc2c1C(=O)c1c(O)c3c(c(O)c1C2=O)C[C@@](O)(C(=O)CO)C[C@@H]3O[C@H]1C[C@H](N)[C@H](O)[C@H](C)O1` [DOXORUBICIN] registered an IC50 in the assay on MOLT-4 of 35 nM.
Still for that read-out and setting: the result for `COc1cc([C@@H]2c3cc4c(cc3[C@@H](O[C@@H]3O[C@@H]5CO[C@@H](C)O[C@H]5[C@H](O)[C@H]3O)[C@H]3COC(=O)[C@H]23)OCO4)cc(OC)c1O` [ETOPOSIDE] reads 38 nM; that for `CN(Cc1cnc2nc(N)nc(N)c2n1)c1ccc(C(=O)N[C@@H](CCC(=O)O)C(=O)O)cc1` [METHOTREXATE], 48 nM.
